# Source: US8987294B2, “Small molecule inhibitors of the α4-paxillin interaction” (The Regents of the University of California, priority 2009, dated 2015)
# How the values were obtained:
# [1] = biological target: T1, interaction of FAT with paxillin (Homo sapiens, UniProt P49023); assay: ELISA, paxillin binding to immobilized FAT
# T1 construct: Recombinant 6×His-FAT, the focal adhesion targeting domain of pp125^FAK; 6xHis (N); made in house; host or cells: E. coli BL21(DE3)pLysS
# Protocol: (§1) Thermo Electron High Binding 96 or 384 well plates were coated with 1 μg/ml neutravidin (Pierce) in 0.05M NaHCO3 pH 9.5 over night at 4° C. After blocking with 1% heat inactivated BSA in PBS for 1 hour at room temperature, plates were incubated with 1 μg/ml of recombinant αIIb-tail or α4-tail FAT or Git-1 in 1% BSA in PBS for one hour at room temperature. Plates were washed twice with 0.2% Tween in PBS to remove unbound protein and incubated with 10 μg/ml HA-tagged leupaxin or paxillin in 0.2% Tween/1% BSA in PBS in the presence or absence of small molecule compounds (5 mM DMSO stock solutions). […] Plates were washed twice and bound leupaxin or paxillin was detected by incubating with the first antibody (12CA5 ascites, 1:10,000 in 0.2% Tween/1% BSA in PBS) for 1 hour at room temperature and then with the secondary antibody (HPR-conjugated anti mouse, Biosource, 1:1,000 in 0.2% Tween, 1% BSA, PBS for 1 hour at room temperature. Binding was quantified after addition of ECL solution on a Victor luminescence plate reader. 0% inhibition control was measured with leupaxin and no compound and 100% inhibition control (background) was measured with no leupaxin and no compound. Each well was duplicated and percent inhibition was averaged. (FIG. 1A)
# [2] = test system: Jurkat T cells expressing a mutated α4-integrin (α4(Y991A)); assay: Modified Boyden chamber migration, JB4-Y991A cells; format: cell-based
# Protocol: (§2) Cell migration was assayed in a modified Boyden chamber assay system as described previously (8). For Jurkat T cell migration, transwell (Costar) polycarbonate membranes containing 3-μm pores were coated with 10 μg/ml CS-1, an α4 integrin binding fragment of fibronectin or 20 μg/ml ICAM in 0.1M NaHCO3, pH 8.0 overnight at 4° C. Membranes were blocked with 2% BSA in PBS for 30 minutes at room temperature. 2.0×10^5 Jurkat T cells in RPMI 1640 with 10% fetal bovine serum were added to the top chamber. Stromal-derived factor-1α (SDF-1α, R&D Systems, Minneapolis, Minn.) at a final concentration of 15 ng/ml in RPMI 1640 with 10% fetal bovine serum was added to the bottom chamber. Cells were allowed to migrate for 5 hours at 37° C. Cells in the bottom chamber were enumerated with a hemacytometer. Small molecule inhibitors were added to the top and bottom chamber in the indicated concentrations.
# [3] = biological target: T2, interaction of GIT-1 with leupaxin (Homo sapiens, UniProt O60711); assay: ELISA, leupaxin binding to immobilized Git-1; settings: read-out: IC50, inhibition of interaction of GIT-1 with leupaxin
# T2 sequence (O60711 1-386): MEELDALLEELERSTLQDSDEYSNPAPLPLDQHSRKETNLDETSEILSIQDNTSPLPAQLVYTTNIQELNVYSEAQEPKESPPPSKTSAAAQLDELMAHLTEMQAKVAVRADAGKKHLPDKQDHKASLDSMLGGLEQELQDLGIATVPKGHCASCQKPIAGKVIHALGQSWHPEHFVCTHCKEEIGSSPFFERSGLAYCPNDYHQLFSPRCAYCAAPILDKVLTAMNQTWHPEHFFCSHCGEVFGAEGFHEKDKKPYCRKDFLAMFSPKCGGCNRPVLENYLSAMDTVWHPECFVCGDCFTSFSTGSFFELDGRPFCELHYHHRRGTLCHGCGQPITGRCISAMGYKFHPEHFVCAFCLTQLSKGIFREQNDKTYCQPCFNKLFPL
# Protocol: as §1
# C57B1/6 mice = assay: Thioglycollate-induced peritonitis; format: in vivo
# Protocol: Male C57B1/6 mice 5-6 weeks old were injected intraperitoneally with 1 ml sterile 4% (wt/vol) thioglycollate (Sigma-Aldrich). Mice were injected with 16.5 mg/kg 6-B345TTQ, 6-234TTQ or the equal volume of vehicle only every 8-12 hours. At various time points after injection, mice were sacrificed and subjected to peritoneal lavage with 4 ml PBS containing 5 mM EDTA and 1% BSA. Total leukocytes in lavage samples were enumerated with a hemocytometer. Cells (1×10^5) were attached to glass slides with a Cytospin4 instrument (ThermoSharidon) and stained with modified Wright-Giemsa stain. Differential cell counts were performed on 5 individual fields, each containing 100 cells by light microscopy.
# THP-1 cells = assay: Modified Boyden chamber migration, THP-1 cells on CS-1; format: cell-based; settings: Homo sapiens, 3 hours, read-out: inhibition of monocyte migration
# Protocol: as §2
# THP-1 cells were cultured in RPMI1640 containing 0.1% fetal bovine serum for 16 hours before 1×10^6 cells were added to the top chamber of transwells with CS1-coated membranes that contained 5-μm pores and allowed to migrate for 3 hours towards RPMI containing 0.1% fetal bovine serum.
# [4] = biological target: T3, interaction of leupaxin with α4-integrin (Homo sapiens, UniProt O60711); assay: ELISA, leupaxin binding to immobilized α4 tail
# T3 construct: Biotinylated α4-integrin cytoplasmic tail was coated to the plates; 6xHis (N); biotin acceptor peptide […]; made in house; host or cells: Escherichia coli
# T3 sequence (O60711 1-386): T2 sequence (O60711 1-386)
# Protocol: as §1
# Inhibition of the α4 leupaxin interaction was measured using the above described ELISA assay. Biotinylated α4-integrin cytoplasmic tail was coated to the plates and incubated with increasing concentrations of leupaxin in the presence of different concentrations of inhibitor or no inhibitor. The data were fitted to equations for models of competitive, non-competitive, uncompetitive of mixed inhibition using Graph Pad Prism 5.0 to test which model fits the best.
# [5] = biological target: T4, interaction of paxillin with α4-integrin (Homo sapiens, UniProt P49023); assay: ELISA, paxillin binding to immobilized α4 tail; settings: 10 μg/ml paxillin; read-out: IC50, inhibition of paxillin binding to α4-integrin
# T4 construct: 6xHis (N); biotin acceptor peptide […]; made in house; host or cells: Escherichia coli
# Protocol: as §1
# [6] = biological target: T5, interaction of leupaxin with the focal adhesion targeting sequence of pp125^FAK (FAT) (Homo sapiens, UniProt O60711); assay: ELISA, leupaxin binding to immobilized FAT; settings: concentrations up to 100 μM
# T5 construct: Recombinant 6×His-FAT, the focal adhesion targeting domain of pp125^FAK; 6xHis (N); made in house; host or cells: E. coli BL21(DE3)pLysS
# T5 sequence (O60711 1-386): T2 sequence (O60711 1-386)
# Protocol: as §1
# Jurkat T cells [7] = assay: Cytotoxicity assay (CellTiter 96 Aqueous One Solution); format: cell-based; settings: concentrations up to 100 μM for 24 h
# Protocol: The cytotoxicity effect of compounds on cultivated cells was determined using the CellTiter 96® Aqueous One Solution Cell Proliferation Assay (Promega, Madison, Wis.) according to the manufacturer's guidelines.
# [8] = biological target: interaction of GIT-1 with paxillin (Homo sapiens, UniProt P49023); assay: ELISA, paxillin binding to immobilized Git-1; settings: read-out: IC50, inhibition of interaction of GIT-1 with paxillin
# Protocol: as §1
# Jurkat T cells [9] = assay: Spreading assay, Jurkat T cells on CS-1; format: cell-based; settings: 180 minutes after plating on CS-1
# Protocol: (§3) Cell spreading was performed as described (11, 34). Briefly, CHO cells or Jurkat cells resuspended in Dulbecco's modified Eagle's medium or RPMI 1640, respectively, containing 0.5% fetal bovine serum and 0.2% BSA were plated on coverslips coated with 3 μg/ml GST-CS-1 in 12 well plates in the presence or absence of the small molecule inhibitor. […] The cell area was measured and analyzed using the ImageJ software. At least three independent experiments were performed and in each experiment at least 30 cells were analyzed.
# [10] = biological target: T6, native paxillin and α4-integrin (Homo sapiens, UniProt P49023); assay: Coimmunoprecipitation of α4 with paxillin from Jurkat T cells; format: binding; settings: anti-biotin blot
# T6 construct: endogenous in cells; host or cells: Jurkat T cells
# Protocol: For endogenous Coimmunoprecipitation experiments, Jurkat T-cells were washed in ice-cold PBS and incubated in 1.6 mM Sulfo-NHS-Biotin (Pierce, Chemical Co.) for 30 minutes at room temperature. Excess biotin was quenched and washed from the cells with PBS/Glycine. Cell lysates were then prepared with lysis buffer containing 20 mM Tris, pH 7.4, 150 mM NaCl, 10 mM EDTA, 1% Triton X-100, 0.05% Tween 20 and a protease inhibitor cocktail (Roche Diagnostics Corp.). Lysate containing 200 μg total cell protein was immunoprecipitated using 2 μg rabbit anti paxillin (RB-4358). Immunoprecipitated proteins were separated by SDS-PAGE (8% Bis-Tris, denaturating and reducing) and transferred to nitrocellulose membranes. Precipitated, biotinylated proteins were detected using HRP-Streptavidin (1:10,000).
# [11] = test system: CHO wildtype cells that do not express α4; assay: Spreading assay, CHO wildtype cells on fibronectin; format: cell-based, Chinese Hamster; settings: plated on fibronectin; data not shown
# Protocol: Cell spreading was performed as described (11, 34). Briefly, CHO cells or Jurkat cells resuspended in Dulbecco's modified Eagle's medium or RPMI 1640, respectively, […] presence or absence of the small molecule inhibitor. […] The cell area was measured and analyzed using the ImageJ software. At least three independent experiments were performed and in each experiment at least 30 cells were analyzed.
# CHO-S998A cells = assay: Spreading assay, CHO-S998A cells on CS-1; format: cell-based, Chinese Hamster; settings: CS-1 coated cover slips, 45 minutes
# Protocol: as §3
# Jurkat T cells [12] = assay: Modified Boyden chamber migration, Jurkat T cells on CS-1; format: cell-based; settings: Homo sapiens, 5 hours towards SDF-1α, read-out: inhibition of T-cell migration
# Protocol: as §2
# Jurkat T cells [13] = assay: Modified Boyden chamber migration, Jurkat T cells on ICAM-1 (αLβ2-mediated); format: cell-based
# Protocol: as §2
# T1 sequence (P49023 whole entry, the tested form may be a part): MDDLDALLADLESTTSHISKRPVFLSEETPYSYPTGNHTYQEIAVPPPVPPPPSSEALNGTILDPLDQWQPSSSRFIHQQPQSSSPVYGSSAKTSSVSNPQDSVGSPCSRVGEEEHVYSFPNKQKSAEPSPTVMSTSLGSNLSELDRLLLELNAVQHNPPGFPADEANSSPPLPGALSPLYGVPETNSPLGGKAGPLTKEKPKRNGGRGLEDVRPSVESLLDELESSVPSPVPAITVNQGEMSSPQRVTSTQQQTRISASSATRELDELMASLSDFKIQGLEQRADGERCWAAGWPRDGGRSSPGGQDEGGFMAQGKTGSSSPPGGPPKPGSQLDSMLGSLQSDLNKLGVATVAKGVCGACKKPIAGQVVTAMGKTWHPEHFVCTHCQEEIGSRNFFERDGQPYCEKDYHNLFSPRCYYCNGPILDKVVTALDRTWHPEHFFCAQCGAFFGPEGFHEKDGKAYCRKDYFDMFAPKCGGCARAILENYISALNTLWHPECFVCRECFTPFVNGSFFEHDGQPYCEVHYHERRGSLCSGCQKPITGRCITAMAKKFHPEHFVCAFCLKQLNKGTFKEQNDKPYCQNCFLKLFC
# T4 sequence (P49023 whole entry): as the sequence (P49023 whole entry, the tested form may be a part) above
# T6 sequence (P49023 whole entry): as the sequence (P49023 whole entry, the tested form may be a part) above
# interaction of GIT-1 with paxillin, sequence (P49023 whole entry): as the sequence (P49023 whole entry, the tested form may be a part) above
structure (smiles),measurement,setting,value
COc1cc(C2CC(=O)Nc3c2cc(Br)c2ccccc32)cc(OC)c1OC (centres unmarked) [6-B345TTQ],inhibition of the interaction of FAT with paxillin,[1],did inhibit
same,residual α4-dependent migration of α4(Y991A) Jurkat T cells,[2],not further decreased
same,IC50,[3],25 µM
same,reduction of infiltration of peritoneal monocytes/macrophages,"C57B1/6 mice; 16.5 mg/kg every 8-12 hours i.p., 48 hours after thioglycollate",50%
same,recruitment of lymphocytes to the peritoneum,"C57B1/6 mice; 16.5 mg/kg every 8-12 hours, 48 hours and 72 hours after thioglycollate",reduction was not statistically significant
same,recruitment of neutrophils,"C57B1/6 mice; 16.5 mg/kg every 8-12 hours, vs vehicle",no difference
same,inhibition at 50 µM,THP-1 cells,52.6%
same,IC50,"[4]; 10 μg/ml leupaxin, read-out: IC50, inhibition of leupaxin binding to α4-integrin",18 µM
same,nature of inhibition of the α4 leupaxin interaction,"[4]; increasing leupaxin, various inhibitor concentrations, model fit Graph Pad Prism 5.0",competitive inhibitor
same,α-value of mixed model of inhibition,[4]; mixed model fit,~2.958×10^12
same,IC50,[5],10.8 µM
same,effect on the binding of FAT to leupaxin,[6],no effect
same,cytotoxicity (cell viability),Jurkat T cells [7],not cytotoxic
same,IC50,[8],2.4 µM
same,spreading of Jurkat T cells,Jurkat T cells [9],dose dependent increase
same,amount of α4 co-immunoprecipitated with paxillin,[10],decreased with increasing concentrations
same,spreading of CHO wildtype cells,[11],not increased
same,spreading of CHO-S998A cells,CHO-S998A cells,increased the spreading of CHO-S998A cells to a level comparable with CHO-S998D cells
same,inhibition at 50 µM,Jurkat T cells [12],56.4%
same,effect on αLβ2-mediated Jurkat T cell migration on ICAM-1,Jurkat T cells [13],not significantly reduced
